ChEMBL document CHEMBL1201862, “PubChem BioAssay data set” (2004)
Blank lines part the entries; values can stand above or below the molecule they belong to. Active and inactive are the calls of the source. Cut-off read from the data, not from the text of the source, for most assays here: actives have a measured IC50 and inactives only a lower limit.

Legend:
[1] = HIV-1 AD8 envelope cell-cell fusion blockers – cherry-pick, dose response (AID 652062); format: functional, cell-based;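 note: luciferase signal from cell-cell fusion driven by HIV-1 clade B AD8 Env; potency is for inhibitors of fusion seen as a drop in luminescence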
HEK293 = assay: cells; conditions: Homo sapiens;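 note: cells exposed to compound for 14 hours overnight before viability readout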
Tumor necrosis factor = Tumor necrosis factor (Homo sapiens, UniProt P01375); assay: analog potency on TNFa NF-kB signaling – cell-based, revised, SAR follow-up (AID 2337); format: functional
Chain of Tumor necrosis factor (P01375 whole entry, the tested form may be a part): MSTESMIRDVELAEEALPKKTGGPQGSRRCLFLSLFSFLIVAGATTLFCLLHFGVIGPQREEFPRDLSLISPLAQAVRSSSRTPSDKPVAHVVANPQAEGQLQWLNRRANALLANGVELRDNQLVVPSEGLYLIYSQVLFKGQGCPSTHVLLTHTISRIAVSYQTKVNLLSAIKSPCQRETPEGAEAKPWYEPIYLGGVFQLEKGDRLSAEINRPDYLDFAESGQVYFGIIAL

[2] = molecular target: T1, Nucleotide-binding oligomerization domain-containing protein 1 (Homo sapiens, UniProt Q9Y239); assay: blockers of NOD1 pathway activity – revised, SAR follow-up (AID 2333); format: functional
T1 sequence (Q9Y239 whole entry): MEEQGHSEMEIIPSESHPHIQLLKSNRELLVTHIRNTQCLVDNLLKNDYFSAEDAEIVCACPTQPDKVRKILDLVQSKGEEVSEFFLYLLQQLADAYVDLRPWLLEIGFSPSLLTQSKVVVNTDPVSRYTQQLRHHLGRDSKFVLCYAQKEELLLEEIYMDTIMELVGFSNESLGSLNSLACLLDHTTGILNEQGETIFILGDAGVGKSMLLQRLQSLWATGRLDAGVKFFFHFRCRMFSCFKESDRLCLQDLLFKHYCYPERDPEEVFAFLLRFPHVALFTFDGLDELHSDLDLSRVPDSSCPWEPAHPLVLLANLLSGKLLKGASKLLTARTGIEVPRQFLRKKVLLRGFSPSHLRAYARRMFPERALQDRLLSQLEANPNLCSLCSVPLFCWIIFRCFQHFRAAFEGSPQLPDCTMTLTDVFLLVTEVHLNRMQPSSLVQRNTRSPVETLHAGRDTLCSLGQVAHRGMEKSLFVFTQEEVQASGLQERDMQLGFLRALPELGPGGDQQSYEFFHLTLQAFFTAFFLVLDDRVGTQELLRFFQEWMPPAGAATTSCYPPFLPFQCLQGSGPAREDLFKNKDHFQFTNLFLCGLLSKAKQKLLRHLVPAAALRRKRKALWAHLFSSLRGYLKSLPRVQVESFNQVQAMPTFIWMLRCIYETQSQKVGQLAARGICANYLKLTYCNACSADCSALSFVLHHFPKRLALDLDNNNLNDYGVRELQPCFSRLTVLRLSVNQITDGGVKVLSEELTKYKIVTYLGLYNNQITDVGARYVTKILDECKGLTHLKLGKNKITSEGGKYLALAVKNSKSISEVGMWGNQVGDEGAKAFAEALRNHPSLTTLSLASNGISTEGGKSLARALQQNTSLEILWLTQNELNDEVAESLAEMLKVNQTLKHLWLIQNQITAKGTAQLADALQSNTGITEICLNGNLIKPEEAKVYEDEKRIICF

[3] = molecular target: Nucleotide-binding oligomerization domain-containing protein 2 (Homo sapiens, UniProt Q9HC29); assay: PubChem AID 2334; format: functional
Chain of Nucleotide-binding oligomerization domain-containing protein 2 (Q9HC29 whole entry, the tested form may be a part): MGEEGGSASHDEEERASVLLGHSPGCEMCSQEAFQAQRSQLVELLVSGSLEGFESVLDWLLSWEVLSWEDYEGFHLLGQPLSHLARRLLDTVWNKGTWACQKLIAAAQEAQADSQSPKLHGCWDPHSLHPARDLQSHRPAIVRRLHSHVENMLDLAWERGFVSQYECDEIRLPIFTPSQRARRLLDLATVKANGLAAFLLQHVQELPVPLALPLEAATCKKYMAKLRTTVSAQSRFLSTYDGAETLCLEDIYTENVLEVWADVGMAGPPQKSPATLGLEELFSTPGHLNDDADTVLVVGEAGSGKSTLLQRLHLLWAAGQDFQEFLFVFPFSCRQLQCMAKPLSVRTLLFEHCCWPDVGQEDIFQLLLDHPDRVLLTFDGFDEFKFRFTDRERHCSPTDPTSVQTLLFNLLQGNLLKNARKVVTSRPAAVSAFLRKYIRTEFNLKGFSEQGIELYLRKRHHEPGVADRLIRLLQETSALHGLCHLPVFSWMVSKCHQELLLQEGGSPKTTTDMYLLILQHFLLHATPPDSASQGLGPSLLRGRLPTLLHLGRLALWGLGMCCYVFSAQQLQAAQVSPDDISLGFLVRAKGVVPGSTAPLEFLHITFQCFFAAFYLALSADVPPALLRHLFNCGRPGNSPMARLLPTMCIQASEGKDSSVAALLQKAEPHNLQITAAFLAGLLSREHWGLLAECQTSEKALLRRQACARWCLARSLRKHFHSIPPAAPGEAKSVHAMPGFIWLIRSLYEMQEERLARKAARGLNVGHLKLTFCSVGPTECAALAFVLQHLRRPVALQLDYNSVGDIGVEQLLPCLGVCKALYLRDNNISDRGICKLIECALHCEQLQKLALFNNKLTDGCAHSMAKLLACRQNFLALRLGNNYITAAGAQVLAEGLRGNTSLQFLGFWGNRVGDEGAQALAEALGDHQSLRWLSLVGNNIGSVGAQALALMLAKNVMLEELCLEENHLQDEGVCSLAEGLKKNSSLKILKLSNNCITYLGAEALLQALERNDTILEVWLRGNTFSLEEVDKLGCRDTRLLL

[4] = molecular target: Scavenger receptor class B member 1 (Mus musculus, UniProt Q61009); assay: mouse SR-BI DiI-HDL uptake blockers – ldlA[mSR-BI] cells, fluorescence, cherry pick, dose response (AID 493194); format: functional, cell-based;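 note: cellular uptake of fluorescent DiI-labeled HDL measured as cell fluorescence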
Chain of Scavenger receptor class B member 1 (Q61009 whole entry): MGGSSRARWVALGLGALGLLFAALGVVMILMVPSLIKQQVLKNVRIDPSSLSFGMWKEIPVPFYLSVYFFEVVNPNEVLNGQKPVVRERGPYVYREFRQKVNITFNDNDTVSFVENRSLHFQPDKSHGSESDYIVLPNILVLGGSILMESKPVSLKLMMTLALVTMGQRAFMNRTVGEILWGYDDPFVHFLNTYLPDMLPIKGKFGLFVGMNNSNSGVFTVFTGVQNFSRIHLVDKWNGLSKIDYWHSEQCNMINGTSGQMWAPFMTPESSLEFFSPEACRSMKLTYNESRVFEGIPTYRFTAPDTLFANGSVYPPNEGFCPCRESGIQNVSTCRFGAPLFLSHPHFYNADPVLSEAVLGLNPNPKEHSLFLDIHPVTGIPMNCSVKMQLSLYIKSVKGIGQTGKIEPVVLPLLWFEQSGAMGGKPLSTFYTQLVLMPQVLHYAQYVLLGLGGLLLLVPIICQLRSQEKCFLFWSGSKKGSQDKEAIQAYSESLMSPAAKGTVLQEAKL

[5] = molecular target: Metabotropic glutamate receptor 4 (Rattus norvegicus, UniProt P31423); assay: Modulation of the Metabotropic Glutamate Receptor mGluR4: Rat PAM Potency. [Related pubchem assays (depositor defined):AID2437, AID2807]; format: functional
Chain of Metabotropic glutamate receptor 4 (P31423 whole entry): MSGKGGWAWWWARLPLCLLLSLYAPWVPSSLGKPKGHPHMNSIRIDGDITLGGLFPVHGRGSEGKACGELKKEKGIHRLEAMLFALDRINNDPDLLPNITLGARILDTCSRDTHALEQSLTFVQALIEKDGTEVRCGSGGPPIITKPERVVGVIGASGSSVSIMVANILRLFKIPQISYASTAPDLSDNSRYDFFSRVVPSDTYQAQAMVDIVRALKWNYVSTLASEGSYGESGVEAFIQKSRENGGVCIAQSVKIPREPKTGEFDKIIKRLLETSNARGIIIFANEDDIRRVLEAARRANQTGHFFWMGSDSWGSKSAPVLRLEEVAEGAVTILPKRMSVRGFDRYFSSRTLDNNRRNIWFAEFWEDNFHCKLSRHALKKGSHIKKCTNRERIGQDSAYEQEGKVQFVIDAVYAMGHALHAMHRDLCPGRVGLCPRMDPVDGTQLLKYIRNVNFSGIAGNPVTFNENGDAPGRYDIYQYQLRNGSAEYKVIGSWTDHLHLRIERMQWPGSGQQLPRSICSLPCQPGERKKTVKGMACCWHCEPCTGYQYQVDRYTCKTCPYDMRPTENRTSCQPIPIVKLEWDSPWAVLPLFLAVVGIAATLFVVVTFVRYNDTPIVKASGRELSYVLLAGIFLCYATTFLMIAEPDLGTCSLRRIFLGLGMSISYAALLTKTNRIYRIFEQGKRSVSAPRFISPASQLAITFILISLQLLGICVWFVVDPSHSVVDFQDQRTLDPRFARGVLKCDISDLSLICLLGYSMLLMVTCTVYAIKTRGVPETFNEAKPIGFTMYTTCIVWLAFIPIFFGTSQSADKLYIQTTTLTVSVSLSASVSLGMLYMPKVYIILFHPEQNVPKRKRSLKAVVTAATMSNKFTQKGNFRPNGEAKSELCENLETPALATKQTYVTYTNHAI

SMILES: Cc1ccc(NC(=O)c2ccc(CN3CCc4ccccc4C3)cc2)cc1
AC50 [1]: 5.75 µM (active)
IC50 (HEK293): > 20 µM (inactive)
IC50 (Tumor necrosis factor): > 20 µM (inactive)
IC50 [2]: 3.44 µM (active)
IC50 [3]: > 20 µM (inactive)

AC50 [4]: 50.2 µM (active)
SMILES: COCc1cc(=O)oc2cc(NC(=O)c3ccc(C(C)(C)C)cc3)ccc12

EC50 [5]: 0.07 µM (active)
SMILES: O=C(Nc1ccc(N2C(=O)c3ccccc3C2=O)c(Cl)c1)c1ccccn1
